According to patent US10662100B2, “Chlorination-UV process for decomposition and detoxification of microcystin-LR” (priority 2016, dated 2020):
Values joined by “and” are separate entries in the source; they are usually repeats but may differ in a detail not shown here. Equal values may be shown once. Read-outs that look alike come from different tables or passages of the source. Starred links: 1 amine or outer side, 2 acyl side, 3 side chain; linkers in the order of their positions; H or OH if unused. Positions of bridges follow the written chain, without caps; N, C: chain ends. Non-standard residues stand in square brackets, D forms with d. Residues, ends and D or L forms follow the SMILES beside them. Adda = CO[C@@H](Cc1ccccc1)[C@@H](C)/C=C(C)/C=C/[C@H](N[*:1])[C@H](C)C(=O)[*:2]; dAsp(3S-Me) = C[C@H](C(=O)[*:3])[C@@H](N[*:1])C(=O)[*:2]; d(γGlu) = O=C(O)[C@@H](CCC(=O)[*:2])N[*:1]; NMeDha = C=C(NC)C(=O)O

Tests used:
[1] = UV254 photolysis and chlorine/UV process for MC-LR decomposition; assay type: physicochemical
Procedure: (§1) Free chlorine and MC-LR solutions were freshly prepared before each experiment. The initial MC-LR concentration was 2.00×10^−6 mol/L (2.00 mg/L). The pH of MC-LR solutions before addition of chlorine was 7.78. Initial MC-LR decomposition experiments were conducted in unbuffered solutions in order to mitigate against participation of buffers and other inorganic ions in the reactions; pH measurements were not conducted after initiation of the reactions due to limited reaction volumes. In experiments that were designed to examine the effects of pH on MC-LR behavior, 10 mM phosphate buffer was added into MC-LR solution. The pH of solution was adjusted to 6.5, 7.5, and 8.5 by addition of 50 mM sulfuric acid or 100 mM sodium hydroxide.
(§2) […]. […] Pre-chlorinated samples were then collected in headspace-free, gas-tight containers for subsequent UV irradiation at a characteristic wavelength of 254 nm using a flat-plate collimated beam.
Incident UV254 irradiance was 1.00×10^−4 W/cm^2, as measured by a calibrated radiometer (IL1700, International Light Technologies, Peabody, Mass., U.S.). UV254 doses applied in the experiments ranged from 0 to 720 mJ/cm^2 for exposure times ranging from 0 to 120 min. The actual UV254 doses delivered to the samples would have been slightly lower than these values because of the effects of reflection and absorbance, which were not accounted for. The collimated beam system used in these experiments has been described previously. Water samples were collected periodically for determination of MC-LR concentration and cytotoxicity, as described below. All experiments were conducted in triplicate and the values were expressed as mean±standard deviation (SD) from the replicate measurements.
(§3) A high-performance liquid chromatography (HPLC) system (Surveyor, Thermo Scientific, FL, U.S.) equipped with an Acclaim PepMap100 C18 column (250 mm×1.0 mm I.D., 5 μm particle size) was used to measure MC-LR concentration (Merel et al., (2009) Chemosphere 74: 832-839). The HPLC mobile phase was CH3CN/H2O/TFA (60:40:0.1). […]

[2] = cited from earlier work
NIH3T3 cells = assay type: cell-based, mouse
[3] = Chlorination of MC-LR, Total MC-LR by HPLC; assay type: physicochemical; settings: pH 7.78
Procedure: as §1, §2
as §3, with “(60:40:0.1). Sample injection volumes were 20 μL with a flow rate of 1.0 mL/min. Detection was performed using a photodiode array at 238 nm.” for “(60:40:0.1).”

Hep3B cells = assay type: cell-based, human
[4] = 254 nm; cited from earlier work

Compound | MC-LR decomposition ([1]; pH 6.5) [%] | photodecay constant (pseudo first-order) ([1]; pH 7.78) | MC-LR decomposition ([1]; pH 8.5) [%] | apparent second-order rate constant for chlorination of MC-LR ([2]; pH 6.1) [M⁻¹ s⁻¹] | apparent second-order rate constant for chlorination of MC-LR ([2]; pH 7) [M⁻¹ s⁻¹] | apparent second-order rate constant for chlorination of MC-LR ([2]; pH 8) [M⁻¹ s⁻¹] | decrease of cell viability (NIH3T3 cells) | apparent second-order rate constant for chlorination of MC-LR [3] [M⁻¹ s⁻¹] | concentration of MC-LR over time [3] | change of cell viability resulting from UV254 exposure alone (Hep3B cells) | decrease of cell viability (Hep3B cells) | viability of Hep3B cells (Hep3B cells) | relative cell viability of Hep3B (Hep3B cells; pH 6.5) [%] | relative cell viability of Hep3B (Hep3B cells; pH 8.5) | quantum yield Φ254 for photodegradation [4] [mol/E] | molar absorptivity ε254 [4] [M⁻¹ cm⁻¹]
C=C1C(=O)N[C@H](C)C(=O)N[C@@H](CC(C)C)C(=O)N[C@@H](C(=O)O)[C@H](C)C(=O)N[C@@H](CCCNC(=N)N)C(=O)N[C@@H](/C=C/C(C)=C/[C@H](C)[C@H](Cc2ccccc2)OC)[C@H](C)C(=O)N[C@@H](C(=O)O)CCC(=O)N1C [MC-LR] (R[Adda][d(γGlu)][NMeDha][dA]L[dAsp(3S-Me)]-OH; lactam N-7) | 64 | 0.000146 s⁻¹ and 0.000169 s⁻¹ and 0.000179 s⁻¹ and 0.000223 s⁻¹ | 83 | 127.8 | 91.5 | 33.1 | up to 76% | 44.5 | remained essentially constant | modest increase | up to 89% | roughly 50% | 60 | roughly 80% |  | 
CN1CC(=O)NC1=N [creatinine] |  |  |  |  |  |  |  |  |  |  |  |  |  |  | 0.011±0.002 | 
N-chloro-creatinine |  |  |  |  |  |  |  |  |  |  |  |  |  |  | 0.144±0.011 | 3911
